These results are taken from patent EP3118202A1, “DIHYDROPYRIDOPYRROLE DERIVATIVES AS TAU-PET-LIGANDS” (AC Immune S.A., priority 2015, dated 2017).

Experiment [1] concerns tau tangles/Aβ plaques on AD brain sections. The experiment in a line: Direct staining of human Alzheimer's disease brain sections (Assay 1, fluorescence based assay). The experiment is classed as binding. Set-up: key to Direct staining of tau tangles/Aβ plaques on AD brain sections at 100 µM: - (No); +++ (strong); ++ (good); + (weak). As to conditions: for Direct staining of tau tangles/Aβ plaques on AD brain sections at 100 µM: 100 µM in 50% ethanol in water, 20 min, room temperature, frozen amygdala sections, Braak stage V-VI; for Direct staining of tau tangles/Aβ plaques on AD brain sections at 100 µM: structure stained: structure (tangles or plaques) that was stained. On the procedure: Assay 1 (Fluorescence based assay):
Direct binding of compounds of this invention to human Alzheimer's disease brain sections
Frozen sections with a thickness of […] from the amygdala of donors diagnosed with Braak stage V-VI Alzheimer's Disease (Braak, H.; Braak, E. Acta Neuropathol., 1991, 82, 239-259), were purchased from a commercial provider (Tissue Solutions) and kept at -80°C until use.
Direct staining of human Alzheimer's disease brain sections
Brain sections were encircled with pap pen liquid blocker to reduce the volume of solution for the different incubations. Sections were fixed for 15 min at 4°C with 4% paraformaldehyde and washed three times 5 minutes with PBS at room temperature. Test compounds were incubated on the sections at 100 µM in 50% ethanol in water for 20 min at room temperature in the dark and then washed three times 5 minutes with PBS. To reduce the auto-fluorescence of the tissue, the sections were incubated in a solution of 0.1% Sudan Black (Sigma 199664) in 70% ethanol for 15 min at room temperature in the dark, washed four times for 5 minutes with PBS, and mounted using ProLong Gold Antifade reagent (Invitrogen P36930). Sections were then analyzed on the Nikon Eclipse Ti microscope to detect staining and imaged using Nikon DS-Fi2 camera and NIS-Element AR4.13.1 software.

For experiment [2], the target named is T1, MAO-A human - recombinant (Homo sapiens, UniProt P21397).
T1 construct: purchased Sigma-Aldrich M7316
T1 sequence (P21397 1-527): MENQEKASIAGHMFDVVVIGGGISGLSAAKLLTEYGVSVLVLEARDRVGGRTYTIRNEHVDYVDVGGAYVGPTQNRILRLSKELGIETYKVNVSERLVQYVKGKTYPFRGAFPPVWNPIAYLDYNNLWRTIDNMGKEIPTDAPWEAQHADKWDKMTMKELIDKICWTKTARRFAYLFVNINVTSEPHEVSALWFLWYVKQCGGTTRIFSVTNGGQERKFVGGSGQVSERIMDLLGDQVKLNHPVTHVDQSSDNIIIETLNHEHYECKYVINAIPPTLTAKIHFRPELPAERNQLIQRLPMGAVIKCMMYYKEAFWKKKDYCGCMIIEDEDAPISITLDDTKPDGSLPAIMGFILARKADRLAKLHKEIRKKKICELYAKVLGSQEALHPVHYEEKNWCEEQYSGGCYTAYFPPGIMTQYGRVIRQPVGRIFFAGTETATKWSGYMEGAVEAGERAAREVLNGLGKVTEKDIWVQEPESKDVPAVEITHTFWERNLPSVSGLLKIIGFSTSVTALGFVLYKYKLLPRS
The experiment in a line: Monoamine oxidase A (MAO-A) assay (MAO-Glo Assay). The experiment is classed as biochemical. Particulars: MAO substrate 40 µM; 1 hour at room temperature; read-out: MAO A binding. On the procedure: Monoamine oxidase A (MAO-A) assay
Compounds were tested for their capacity to modulate MAO-A activity within the MAO-Glo™ Assay (Promega, Cat.# V1402). In each well of a 96-well plate, 12.5 µl of 4X MAO Substrate solution (end-concentration in assay: 40 µM) were mixed with 12.5 µl of a 4X solution of the corresponding test compound (end-concentrations ranged from 10 µM to 1.37 nM). In the absence of a test compound (i.e. to gauge the total MAO-A activity), the corresponding volume of MAO Reaction Buffer (100 mM HEPES (pH 7.5), 5% glycerol) was added. To initiate the MAO reaction, 25 µl of 2X MAO-A enzyme solution (MAO-A human - recombinant, Sigma-Aldrich, Cat.# M7316; 1 µg MAO-A enzyme/25 µl MAO Reaction Buffer) were added per well and mixed briefly. For negative control reactions, 25µl of MAO Reaction Buffer were added. Thereafter the plate was incubated at room temperature for 1 hour, following which, 50 µl of reconstituted Luciferin Detection Reagent were added per well and mixed briefly. The plate was then incubated at room temperature for 20 minutes to generate and stabilize the luminescent signal. The luminescent signal was subsequently measured and recorded on the TopCountNXT™ luminescence counter (PerkinElmer). Data were analyzed and graphs were prepared using the Graphpad Prism 6 software.

In experiment [3] the target is T2, MAO-B human - recombinant (Homo sapiens, UniProt P27338).
T2 construct: purchased Sigma-Aldrich M7441
T2 sequence (P27338 1-520): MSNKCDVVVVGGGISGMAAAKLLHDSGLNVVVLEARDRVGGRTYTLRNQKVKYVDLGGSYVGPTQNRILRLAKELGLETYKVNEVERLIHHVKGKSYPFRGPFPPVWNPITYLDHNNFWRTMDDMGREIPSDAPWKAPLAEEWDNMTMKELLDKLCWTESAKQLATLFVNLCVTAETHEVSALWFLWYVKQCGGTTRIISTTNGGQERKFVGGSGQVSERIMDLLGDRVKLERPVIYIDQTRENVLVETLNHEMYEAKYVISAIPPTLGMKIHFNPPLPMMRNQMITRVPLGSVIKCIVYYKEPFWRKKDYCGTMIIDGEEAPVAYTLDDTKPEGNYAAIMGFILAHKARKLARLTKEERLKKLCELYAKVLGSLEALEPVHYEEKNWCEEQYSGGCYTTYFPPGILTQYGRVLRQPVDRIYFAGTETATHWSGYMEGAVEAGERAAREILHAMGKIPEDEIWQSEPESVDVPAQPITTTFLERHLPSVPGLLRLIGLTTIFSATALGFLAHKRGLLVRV
The experiment is described as follows: MAO-B assay (MAO-Glo Assay). Format: biochemical. As to conditions: MAO substrate 4 µM; 1 hour at room temperature; read-out: MAO B binding. On the procedure: Compounds were tested for their capacity to modulate MAO-B activity within the MAO-Glo™ Assay (Promega, Cat.# V1402). In each well of a 96-well plate, 12.5 µl of 4X MAO Substrate solution (end-concentration in assay: 4 µM) were mixed with 12.5 µl of a 4X solution of the corresponding test compound (end-concentrations ranged from 10 µM to 1.37 nM). In the absence of a test compound (i.e. to gauge the total MAO-B activity), the corresponding volume of MAO-B Reaction Buffer (100 mM HEPES (pH 7.5), 5% glycerol, 10% dimethyl sulphoxide) was added. To initiate the MAO reaction, 25 µl of 2X MAO-B enzyme solution (MAO-B human - recombinant, Sigma-Aldrich, Cat.# M7441; 1 µg MAO-B enzyme/25 µl MAO-B Reaction Buffer) were added per well and mixed briefly. For negative control reactions, 25µl of MAO-B Reaction Buffer were added. Thereafter the plate was incubated at room temperature for 1 hour, following which, 50 µl of reconstituted Luciferin Detection Reagent were added per well and mixed briefly. The plate was then incubated at room temperature for 20 minutes to generate and stabilize the luminescent signal. The luminescent signal was subsequently measured and recorded on the TopCountNXT™ luminescence counter (PerkinElmer). Data were analyzed and graphs were prepared using the Graphpad Prism 6 software.

As to `CCn1c2ccncc2c2ccc(N3CCC(OCCF)CC3)nc21` [Example 1], in experiment [1], the “Direct staining of tau tangles/Aβ plaques on AD brain sections at 100 µM” value is given as “-”.
On the same count and under the same terms, with `CN(CCF)C1CCN(c2ccc3c4cnccc4n(C)c3n2)CC1` [Example 3] the entry was “-”.
As to `Cn1c2ccncc2c2ccc(N3CCC(OCC(O)CF)CC3)nc21` (stereo not drawn) [Example 5], in experiment [1], the “Direct staining of tau tangles/Aβ plaques on AD brain sections at 100 µM” value is on record as “++” and the “Direct staining of tau tangles/Aβ plaques on AD brain sections at 100 µM: structure stained” value (from here on “Direct staining … structure stained”) is on record as “(tangles)”. Further, the IC50 in experiment [2] was 0.43 µM. Moreover, in experiment [3], the IC50 is greater than 1 µM.
On to `CCn1c2ccncc2c2ccc(N3CCC(OCC(O)CF)CC3)nc21` (stereo not drawn) [Example 6], for which, in experiment [1], the “Direct staining of tau tangles/Aβ plaques on AD brain sections at 100 µM” value is “++” and the “Direct staining … structure stained” value is on record as “(tangles)”.
For the compound `OC(CF)COC1CCN(c2ccc3c(n2)[nH]c2ccncc23)CC1` (stereo not drawn) [Example 10], the IC50 in experiment [2] is 0.79 µM; in experiment [3], greater than 1 µM.
On to `Cn1c2ccncc2c2ccc(N3CCN(CC(O)CF)CC3)nc21` (stereo not drawn) [Example 12], for which, in experiment [1], the “Direct staining of tau tangles/Aβ plaques on AD brain sections at 100 µM” value was “+” and the “Direct staining … structure stained” value is recorded as “(tangles)”. Further, in experiment [2], the IC50 is 0.94 µM. For the same compound, in experiment [3], the IC50 was greater than 1 µM.
With `Cn1c2ccncc2c2ccc(N3CC4CC(C3)C4OCCF)nc21` (stereo not drawn) [Example 13], in experiment [1], the “Direct staining of tau tangles/Aβ plaques on AD brain sections at 100 µM” value was “++” and the “Direct staining … structure stained” value is “(tangles)”.
With `Cn1c2ccncc2c2ccc(N3CCC(COCCF)CC3)nc21` [Example 14], the “Direct staining of tau tangles/Aβ plaques on AD brain sections at 100 µM” value in experiment [1] is listed as “-”.
On the same count and under the same terms, to `Cn1c2ccncc2c2ccc(N3CCOC(CCF)C3)nc21` (stereo not drawn) [Example 16] belongs “-”.
